From ChEMBL document CHEMBL5505970 (J Med Chem, 2024)
The source made the active and inactive calls. No cut-off for these calls is given here.

Tests used:
[1] = system: Granta-519; experiment: Antitumor activity against human Granta-519 cells xenografted in NOD-SCID mouse assessed as decrease in tumor volume at 25 mg/kg, po qd for 5 days and measured at 2 days after drug treatment cessation; type: functional, organism-based; conditions: time 5.0 day
[2] = Toxicity in BALB/c mouse assessed as late stage erythroblasts in bone marrow at 10 mg/kg, po qd for 3 days and measured at 1 day after treatment discontinuation by flow cytometry; type: organism-based; conditions: in vivo, 72 h, time 3 day
[3] = Toxicity in NOD-SCID mouse xenografted with human Granta-519 cells assessed as red blood cells at 30 mg/kg, po qd for 3 days and 4 days off treatment and measured on day 14; type: organism-based; conditions: in vivo, 72 h, time 3 day
[4] = system: Granta-519; experiment: Antitumor activity against human Granta-519 cells xenografted in NOD-SCID mouse assessed as decrease in tumor volume at 30 mg/kg, po qd for 3 days and measured at 4 days after drug treatment cessation; type: functional, organism-based; conditions: time 3.0 day
[5] = system: LoVo; experiment: Cytotoxicity against human LoVo cells assessed as reduction in cell viability incubated for 5 days by CellTiter-Glo assay; type: functional, cell-based; conditions: 120 h
[6] = Clearance in human liver microsomes at 1 uM in presence of NADPH by ESI/LC-MS/MS analysis; type: ADME, Microsome; conditions: read-out: CLH
[7] = biological target: Serine/threonine-protein kinase mTOR (Homo sapiens, UniProt P42345); experiment: Inhibition of mTOR in human Jurkat cell lysates at 0.03 to 0.3 uM in presence of biotinylated ADP by KiNativ profiling based mass spectrometry; type: subcellular; conditions: dose 0.03-0.3 µM
[8] = Clearance in human hepatocytes at 1 uM measured per million cells by ESI/LC-MS/MS analysis; type: ADME, cell-based, Hepatocyte; conditions: read-out: CLH
[9] = biological target: Phosphatidylinositol 4-phosphate 3-kinase C2 domain-containing subunit beta (Homo sapiens) (UniProt O00750); experiment: Inhibition of PIK3C2B in human Jurkat cell lysates at 0.3 uM in presence of biotinylated ADP by KiNativ profiling based mass spectrometry; type: subcellular
[10] = biological target: DNA-dependent protein kinase catalytic subunit (Homo sapiens, UniProt P78527); experiment: Inhibition of DNA-PK in human Jurkat cell lysates at 0.3 uM in presence of biotinylated ADP by KiNativ profiling based mass spectrometry; type: subcellular
[11] = Toxicity in BALB/c mouse assessed as reticulocytes in bone marrow at 10 mg/kg, po qd for 3 days and measured at 4 days after treatment discontinuation; type: organism-based; conditions: in vivo, 72 h, time 3 day
[12] = Toxicity in NOD-SCID mouse xenografted with human Granta-519 cells assessed as reduction in late stage erythroblasts at 10 mg/kg, po qd for 1 day by flow cytometry; type: organism-based; conditions: in vivo, 24 h
[13] = Toxicity in BALB/c mouse assessed as red blood cells in bone marrow at 10 mg/kg, po qd for 3 days and measured at 4 days after treatment discontinuation; type: organism-based; conditions: in vivo, 72 h, time 3 day
[14] = Clearance in CD-1 mouse at 1 mg/kg, iv formulated as a solution in 10% PG:18% PEG400 in water or 5% NMP:95% (10% VitE TPGS in water) measured for 24 hrs by reverse phase liquid chromatography coupled to mass spectrometry; type: ADME, organism-based; conditions: in vivo
[15] = Toxicity in NOD-SCID mouse xenografted with human Granta-519 cells assessed as reduction in early stage erythroblasts in bone marrow at 10 mg/kg, po qd for 1 day co-administered with PARP inhibitor, niraparib by flow cytometry; type: organism-based; conditions: in vivo, 24 h
[16] = Toxicity in NOD-SCID mouse xenografted with human Granta-519 cells assessed as changes in body weight at 30 mg/kg, po qd for 3 days and measured at 4 days after drug treatment cessation; type: organism-based; conditions: in vivo, 72 h, time 3 day
[17] = biological target: T1, Serine/threonine-protein kinase ATR (Homo sapiens, UniProt Q13535); experiment: Inhibition of ATR in human HeLa S3 cells assessed as decrease in CHK1 phosphorylation at Ser345 residue pretreated for 20 mins followed by gemcitabine stimulation for 3.5 to 4 hrs by AlphaScreen SurFire assay; type: cell-based
[18] = Toxicity in BALB/c mouse assessed as mature red blood cells at 10 mg/kg, po qd for 3 days; type: organism-based; conditions: in vivo, 72 h, time 3 day
[19] = Toxicity in BALB/c mouse assessed as early stage erythroblasts in bone marrow at 10 mg/kg, po qd for 3 days and 4 days off intermittent dosing for 4 cycles by flow cytometry; type: organism-based; conditions: in vivo, 672 h, time 28 day
[20] = system: Granta-519; experiment: Antitumor activity against human Granta-519 cells xenografted in NOD-SCID mouse assessed as decrease in tumor volume at 10 mg/kg, po qd for 7 days; type: functional, organism-based; conditions: time 7.0 day
[21] = Clearance in cynomolgus monkey at 0.5 mg/kg, iv formulated as a solution in 10% PG:18% PEG400 in water or 5% NMP:95% (10% VitE TPGS in water) measured for 24 hrs by reverse phase liquid chromatography coupled to mass spectrometry; type: ADME, organism-based, Macaca fascicularis; conditions: in vivo
[22] = Toxicity in NOD-SCID mouse xenografted with human Granta-519 cells assessed as changes in body weight at 25 mg/kg, po qd for 5 days and measured at 2 days after drug treatment cessation; type: organism-based; conditions: in vivo, 120 h, time 5 day
[23] = biological target: Serine/threonine-protein kinase SMG1 (Homo sapiens) (UniProt Q96Q15); experiment: Inhibition of SMG1 in human Jurkat cell lysates at 0.03 to 0.3 uM in presence of biotinylated ADP by KiNativ profiling based mass spectrometry; type: subcellular; conditions: dose 0.03-0.3 µM
[24] = Toxicity in NOD-SCID mouse xenografted with human Granta-519 cells assessed as reticulocytes count at 5 mg/kg, po qd for 3 days and 4 days off intermittent dosing for 3 cycles co-administered with PARP inhibitor, niraparib from day 3 to day 6 in each cycle and measured on day 21; type: organism-based; conditions: in vivo, 504 h, time 21 day
[25] = biological target: Serine-protein kinase ATM (Homo sapiens, UniProt Q13315); experiment: Inhibition of ATM in human Jurkat cell lysates at 0.3 uM in presence of biotinylated ADP by KiNativ profiling based mass spectrometry; type: subcellular
[26] = Toxicity in NOD-SCID mouse xenografted with human Granta-519 cells assessed as red blood cells count at 5 mg/kg, po qd for 3 days and 4 days off intermittent dosing for 3 cycles co-administered with PARP inhibitor, niraparib and measured on day 21; type: organism-based; conditions: in vivo, 504 h, time 21 day
[27] = Toxicity in BALB/c mouse assessed as megakaryocytes in bone marrow at 10 mg/kg, po qd for 3 days; type: organism-based; conditions: in vivo, 72 h, time 3 day
[28] = biological target: T1, Serine/threonine-protein kinase ATR; experiment: Inhibition of ATR in human Jurkat cell lysates at 0.003 to 0.3 uM in presence of biotinylated ADP by KiNativ profiling based mass spectrometry; type: subcellular; conditions: dose 0.003-0.3 µM
[29] = Oral bioavailability in Sprague-Dawley rat at 20 mg/kg formulated as suspension in 0.5% methocel and 0.02% SLS measured for 24 hrs by reverse phase liquid chromatography coupled to mass spectrometry; type: ADME, organism-based; conditions: in vivo
[30] = Clearance in mouse liver microsomes at 1 uM in presence of NADPH by ESI/LC-MS/MS analysis; type: ADME, Microsome; conditions: read-out: CLH
[31] = Toxicity in BALB/c mouse assessed as late stage erythroblasts in bone marrow at 10 mg/kg, po qd for 3 days and 4 days off intermittent dosing for 4 cycles by flow cytometry; type: organism-based; conditions: in vivo, 672 h, time 28 day

Chain of Serine/threonine-protein kinase SMG1 (Homo sapiens) (Q96Q15 whole entry): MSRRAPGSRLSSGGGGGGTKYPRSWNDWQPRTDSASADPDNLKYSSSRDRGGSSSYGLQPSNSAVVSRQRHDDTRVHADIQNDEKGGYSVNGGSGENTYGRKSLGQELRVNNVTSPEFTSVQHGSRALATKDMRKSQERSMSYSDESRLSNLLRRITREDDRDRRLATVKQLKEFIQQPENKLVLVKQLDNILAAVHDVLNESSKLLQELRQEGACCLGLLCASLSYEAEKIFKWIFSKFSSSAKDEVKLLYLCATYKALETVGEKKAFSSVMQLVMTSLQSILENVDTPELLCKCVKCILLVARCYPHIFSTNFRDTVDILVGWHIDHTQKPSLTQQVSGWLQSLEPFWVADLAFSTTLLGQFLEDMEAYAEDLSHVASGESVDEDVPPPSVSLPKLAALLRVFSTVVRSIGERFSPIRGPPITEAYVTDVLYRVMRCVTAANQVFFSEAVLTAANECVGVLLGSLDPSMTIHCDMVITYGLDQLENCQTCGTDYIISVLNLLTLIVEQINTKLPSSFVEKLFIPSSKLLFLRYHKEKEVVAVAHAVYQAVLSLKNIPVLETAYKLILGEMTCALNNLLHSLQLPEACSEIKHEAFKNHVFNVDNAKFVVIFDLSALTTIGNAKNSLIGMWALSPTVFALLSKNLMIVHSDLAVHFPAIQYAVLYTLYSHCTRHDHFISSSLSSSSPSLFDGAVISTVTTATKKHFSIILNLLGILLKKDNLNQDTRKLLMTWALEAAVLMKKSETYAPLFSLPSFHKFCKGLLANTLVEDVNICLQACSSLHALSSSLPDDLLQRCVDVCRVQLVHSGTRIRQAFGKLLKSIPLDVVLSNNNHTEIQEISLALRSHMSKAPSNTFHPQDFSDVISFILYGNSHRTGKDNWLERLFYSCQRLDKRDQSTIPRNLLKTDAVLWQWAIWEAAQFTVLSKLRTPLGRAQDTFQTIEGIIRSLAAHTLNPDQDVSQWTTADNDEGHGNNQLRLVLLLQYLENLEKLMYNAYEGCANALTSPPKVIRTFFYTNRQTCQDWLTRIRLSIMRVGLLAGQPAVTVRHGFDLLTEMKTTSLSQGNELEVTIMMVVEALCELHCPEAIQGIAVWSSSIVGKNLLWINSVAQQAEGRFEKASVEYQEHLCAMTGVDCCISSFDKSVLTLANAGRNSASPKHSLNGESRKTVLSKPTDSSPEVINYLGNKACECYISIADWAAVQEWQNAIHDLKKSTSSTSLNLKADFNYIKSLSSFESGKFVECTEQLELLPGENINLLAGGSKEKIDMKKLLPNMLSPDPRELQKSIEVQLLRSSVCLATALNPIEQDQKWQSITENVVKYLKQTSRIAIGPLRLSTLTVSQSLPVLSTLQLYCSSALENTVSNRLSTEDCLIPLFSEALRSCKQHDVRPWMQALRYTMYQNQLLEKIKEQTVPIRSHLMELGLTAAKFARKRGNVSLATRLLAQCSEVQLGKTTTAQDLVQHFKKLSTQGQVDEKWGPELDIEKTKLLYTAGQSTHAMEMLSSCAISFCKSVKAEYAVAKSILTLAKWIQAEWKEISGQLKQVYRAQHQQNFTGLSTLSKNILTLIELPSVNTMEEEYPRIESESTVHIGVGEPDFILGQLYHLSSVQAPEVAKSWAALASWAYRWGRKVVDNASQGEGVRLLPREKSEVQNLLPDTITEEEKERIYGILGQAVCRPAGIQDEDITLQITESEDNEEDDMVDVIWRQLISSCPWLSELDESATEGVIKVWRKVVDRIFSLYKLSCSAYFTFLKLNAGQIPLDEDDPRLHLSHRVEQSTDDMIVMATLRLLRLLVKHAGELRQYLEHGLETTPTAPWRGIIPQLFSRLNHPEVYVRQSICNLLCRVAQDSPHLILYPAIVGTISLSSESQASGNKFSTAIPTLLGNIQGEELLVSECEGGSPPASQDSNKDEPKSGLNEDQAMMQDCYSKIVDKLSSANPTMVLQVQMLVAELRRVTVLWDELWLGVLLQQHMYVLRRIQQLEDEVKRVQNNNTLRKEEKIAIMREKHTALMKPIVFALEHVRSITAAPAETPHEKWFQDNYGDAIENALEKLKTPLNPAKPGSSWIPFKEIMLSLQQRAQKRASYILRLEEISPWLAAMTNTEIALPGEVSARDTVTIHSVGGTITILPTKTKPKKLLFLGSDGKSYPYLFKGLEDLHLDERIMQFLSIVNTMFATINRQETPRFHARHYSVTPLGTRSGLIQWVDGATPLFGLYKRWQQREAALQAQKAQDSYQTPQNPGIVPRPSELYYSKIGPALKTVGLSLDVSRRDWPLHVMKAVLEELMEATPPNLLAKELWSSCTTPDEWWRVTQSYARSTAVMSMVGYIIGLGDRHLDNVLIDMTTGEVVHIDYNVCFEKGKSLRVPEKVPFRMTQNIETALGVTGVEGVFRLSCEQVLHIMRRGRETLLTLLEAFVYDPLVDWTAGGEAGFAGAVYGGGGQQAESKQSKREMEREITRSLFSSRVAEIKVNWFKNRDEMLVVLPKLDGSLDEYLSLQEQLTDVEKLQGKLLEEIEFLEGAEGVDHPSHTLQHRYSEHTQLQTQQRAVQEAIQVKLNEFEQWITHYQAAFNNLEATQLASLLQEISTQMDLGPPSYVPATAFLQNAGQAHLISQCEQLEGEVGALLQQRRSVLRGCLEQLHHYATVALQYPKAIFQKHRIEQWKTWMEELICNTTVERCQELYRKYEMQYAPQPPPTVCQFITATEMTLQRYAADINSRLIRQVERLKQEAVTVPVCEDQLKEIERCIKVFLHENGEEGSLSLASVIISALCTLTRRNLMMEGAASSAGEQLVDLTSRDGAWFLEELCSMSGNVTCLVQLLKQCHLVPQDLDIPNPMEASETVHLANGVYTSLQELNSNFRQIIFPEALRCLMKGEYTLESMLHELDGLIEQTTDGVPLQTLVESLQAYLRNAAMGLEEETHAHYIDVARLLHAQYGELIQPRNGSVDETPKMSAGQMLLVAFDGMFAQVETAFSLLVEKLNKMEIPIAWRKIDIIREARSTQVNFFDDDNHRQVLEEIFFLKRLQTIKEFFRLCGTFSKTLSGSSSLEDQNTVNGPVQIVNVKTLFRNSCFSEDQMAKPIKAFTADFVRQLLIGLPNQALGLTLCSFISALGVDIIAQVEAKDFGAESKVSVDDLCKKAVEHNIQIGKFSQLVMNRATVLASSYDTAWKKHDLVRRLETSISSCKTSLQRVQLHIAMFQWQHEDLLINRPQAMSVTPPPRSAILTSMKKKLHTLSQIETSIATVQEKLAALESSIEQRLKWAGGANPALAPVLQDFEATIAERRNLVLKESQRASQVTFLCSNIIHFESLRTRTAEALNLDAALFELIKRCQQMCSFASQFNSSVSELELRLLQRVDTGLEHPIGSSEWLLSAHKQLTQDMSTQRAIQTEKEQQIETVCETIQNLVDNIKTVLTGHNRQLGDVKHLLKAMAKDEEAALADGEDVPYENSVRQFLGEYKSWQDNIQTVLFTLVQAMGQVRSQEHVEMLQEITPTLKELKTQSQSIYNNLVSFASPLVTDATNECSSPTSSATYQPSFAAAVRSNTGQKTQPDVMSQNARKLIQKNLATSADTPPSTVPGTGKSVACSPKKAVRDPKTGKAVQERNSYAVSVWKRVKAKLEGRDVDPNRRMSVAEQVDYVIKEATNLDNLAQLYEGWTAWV

microsomal CLint at 1 µM [6]: < 11.6 µL/min/mg
inhibition [7]: Active
hepatocyte CLint at 1 µM [8]: 1.5 µL/min/1e6 cells
inhibition [9]: Active
inhibition [10]: Active
clearance [14]: 1.2 mL/min/kg
IC50 [17]: 0.9 nM
clearance [21]: 14 mL/min/kg
inhibition [23]: Active
inhibition [25]: Active
inhibition [28]: Active
bioavailability [29]: 45%
microsomal CLint at 1 µM [30]: 25 µL/min/mg
SMILES: C[C@@H]1COCCN1c1cc([C@]2(O)C[C@H]3CC[C@@H](C2)O3)c2cnn(-c3cc[nH]n3)c2n1 [CAMONSERTIB]
Activity [1]: Active
Activity [2]: Non-Toxic
Activity [3]: Non-Toxic
Activity [4]: Active
IC50 [5]: 28 nM
Activity [11]: Non-Toxic
Activity [12]: Toxic
Activity [13]: Non-Toxic
Activity [15]: Toxic
Activity [16]: Non-Toxic
Activity [18]: Non-Toxic
Activity [19]: Non-Toxic
Activity [20]: Active
Activity [22]: Non-Toxic
Activity [24]: Non-Toxic
Activity [26]: Non-Toxic
Activity [27]: Non-Toxic
Activity [31]: Non-Toxic
